The values below come from article PMC4712073 (Analytical and bioanalytical chemistry, 2015).

SMILES strings stand for the structures. pIC50: −log10 of the molar value. Like-named read-outs stand apart in the source and are kept apart here.

Experiment [1] addresses T1, SIRT5 (Homo sapiens, UniProt Q9NXA8).
T1 sequence (Q9NXA8 37-310): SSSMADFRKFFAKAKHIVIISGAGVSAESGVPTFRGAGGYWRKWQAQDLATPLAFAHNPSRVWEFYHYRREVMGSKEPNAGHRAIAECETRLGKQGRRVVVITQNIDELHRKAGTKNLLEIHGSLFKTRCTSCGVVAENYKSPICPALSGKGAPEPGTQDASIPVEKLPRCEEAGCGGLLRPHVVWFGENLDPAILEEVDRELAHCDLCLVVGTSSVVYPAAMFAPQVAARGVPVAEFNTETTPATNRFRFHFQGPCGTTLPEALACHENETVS
The conditions noted are these: reported as SIRT5 inhibitor; cited from earlier work.

Experiment [2] concerns the target T1, SIRT5. Nature of the experiment: Peptide-based SIRT5 desuccinylation assay by droplet microchip electrophoresis. The class given is biochemical.

What is called pIC50 is −log10 of the IC50, conventionally taken in molar units. In the case of `N#C/C(=C\c1ccc(-c2cc(Cl)ccc2Cl)o1)C(=O)Nc1cccc2ncccc12` [AGK-2], the pIC50 on SIRT5 [1] is < 4.00.
For the molecule `CCCCCC[C@H]1C(=O)O[C@H](C)[C@H](NC(=O)c2cccc(NC=O)c2O)C(=O)O[C@@H](C)[C@@H]1OC(=O)CC(C)C` [antimycin A], the IC50 entry at SIRT5 [2] (Prestwick hits, dose-response analysis 0.1 to 100 µM) is “near the maximum tested dose”.
For the molecule `CCCCCCCCCCCCCCCc1cccc(O)c1C(=O)O` [anacardic acid], the “SIRT5 inhibition (in words)” value on SIRT5 [2] (pilot screening, chosen as positive control (10 µM)) is given as “potent inhibitor”.
